Test results as given in paper PMC8869358, “High-Throughput Chemical Screening and Structure-Based Models to Predict hERG Inhibition” (Biology, 2022).
Structures can show the parent of a compound that is named as a salt.

Biological target: hERG (Homo sapiens, UniProt Q12809)
Experiment: cell-based
Conditions: (-LOG10(IC50), µM)

Chain of hERG (Q12809 whole entry): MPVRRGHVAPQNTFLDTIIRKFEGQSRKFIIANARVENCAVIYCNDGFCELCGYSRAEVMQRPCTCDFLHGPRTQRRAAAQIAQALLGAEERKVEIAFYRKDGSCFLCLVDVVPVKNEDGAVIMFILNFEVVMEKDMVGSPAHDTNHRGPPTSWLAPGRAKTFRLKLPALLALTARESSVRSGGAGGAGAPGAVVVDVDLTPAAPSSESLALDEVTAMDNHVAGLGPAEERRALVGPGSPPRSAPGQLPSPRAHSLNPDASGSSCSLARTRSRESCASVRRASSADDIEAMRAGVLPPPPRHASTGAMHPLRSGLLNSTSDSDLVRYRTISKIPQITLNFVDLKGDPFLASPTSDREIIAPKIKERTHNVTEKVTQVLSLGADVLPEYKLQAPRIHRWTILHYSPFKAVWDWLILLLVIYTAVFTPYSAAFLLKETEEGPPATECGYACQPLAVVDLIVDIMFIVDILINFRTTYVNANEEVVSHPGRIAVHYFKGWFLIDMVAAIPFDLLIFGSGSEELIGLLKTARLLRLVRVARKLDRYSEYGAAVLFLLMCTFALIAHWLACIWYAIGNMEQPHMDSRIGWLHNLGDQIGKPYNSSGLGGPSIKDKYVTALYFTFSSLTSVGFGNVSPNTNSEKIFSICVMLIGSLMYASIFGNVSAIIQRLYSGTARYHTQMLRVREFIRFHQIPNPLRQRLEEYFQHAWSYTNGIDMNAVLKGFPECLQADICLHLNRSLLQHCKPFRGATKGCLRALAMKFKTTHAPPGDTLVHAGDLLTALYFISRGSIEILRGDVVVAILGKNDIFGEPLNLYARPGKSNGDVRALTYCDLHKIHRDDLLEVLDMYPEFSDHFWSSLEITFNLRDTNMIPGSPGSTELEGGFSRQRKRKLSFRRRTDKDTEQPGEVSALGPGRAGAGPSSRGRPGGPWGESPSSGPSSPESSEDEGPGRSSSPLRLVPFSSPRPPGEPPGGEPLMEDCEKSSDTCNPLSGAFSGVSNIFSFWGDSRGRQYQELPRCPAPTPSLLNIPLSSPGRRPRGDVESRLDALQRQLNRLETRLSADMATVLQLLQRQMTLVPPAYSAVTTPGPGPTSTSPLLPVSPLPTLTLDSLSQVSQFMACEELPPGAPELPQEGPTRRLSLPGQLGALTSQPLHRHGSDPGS

Structure (SMILES) | IC50 [µM]
FC(F)(F)c1cccc(C2=CCN(CCc3ccc4ccccc4c3)CC2)c1 [Xaliproden hydrochloride] | 1.76
CCN(CC)CCOc1ccc(C(O)(Cc2ccc(Cl)cc2)c2ccc(C)cc2)cc1 (centres unmarked) [Triparanol] | 1.11
CC[C@@H]([C@H](C)O)n1ncn(-c2ccc(N3CCN(c4ccc(OC[C@@H]5CO[C@@](Cn6cncn6)(c6ccc(F)cc6F)C5)cc4)CC3)cc2)c1=O [Posaconazole] | 12.9
CCCCCCCCCCCCCCCC[N+](C)(C)Cc1ccccc1 [Benzylhexadecyldimethylammonium chloride] | 3.94
CNC(=O)c1cc(Oc2ccc(NC(=O)Nc3ccc(Cl)c(C(F)(F)F)c3)cc2)ccn1 [Sorafenib tosylate] | 22.1
CC[N+]1(C)CCCC1 [1-Ethyl-1-methylpyrrolidinium iodide] | 19.5
CCN(CC)CCOC(=O)C(C)(c1ccccc1)c1ccccc1 [Aprofene] | 9.16
C[C@]12CC[C@H]3[C@@H](CCC4=CC(=O)CC[C@@H]43)[C@@H]1CC[C@@H]2OC(=O)CCC1CCCCC1 [Nandrolone cyclohexylpropionate] | 15.1
C/C(=C(/OCCOc1ccc(Cl)cc1)c1ccc(Cl)cc1Cl)n1ccnc1 [Omoconazole] | 8.17
CSc1ccc(Oc2ccc(S(N)(=O)=O)cc2CN(C)C)cc1C [UK-416244] | 8.71
CCOC(=O)COC(=O)c1cc(Oc2ccc(C(F)(F)F)cc2Cl)ccc1[N+](=O)[O-] [Fluoroglycofen-ethyl] | 13.8
N=C(N)NN=C(/C=C/c1ccc([N+](=O)[O-])o1)/C=C/c1ccc([N+](=O)[O-])o1 [Nitrovin] | 2.3
CC(C)(C)c1cc(C(C)(C)C)c(O)c(C(C)(C)C)c1 [2,4,6-Tris(tert-butyl)phenol] | 17.4
BrC(Br)C(Br)(Br)Br [Pentabromoethane] | 49.3
CCCCCCCC[N+](C)(CCCCCCCC)CCCCCCCC [Methyltrioctylammonium chloride] | 0.616
c1ccc(C(O[C@@H]2CCCN(CCc3ccc4c(c3)OCO4)C2)c2ccccc2)cc1 [Zamifenacin] | 0.838
COc1ccc(C(=O)c2ccccc2)c(O)c1 [2-Hydroxy-4-methoxybenzophenone] | 43.6
O=S1(=O)OC[C@@H]2[C@H](CO1)[C@]1(Cl)C(Cl)=C(Cl)[C@@]2(Cl)C1(Cl)Cl [Endosulfan sulfate] | 16.1
O=C(CCCN1CCN(c2ccc(F)cc2)CC1)NC1c2ccccc2CSc2ccccc21 (centres unmarked) [Monatepil] | 2.01
CCCCOC(=O)COC(=O)c1ccccc1C(=O)OCCCC [Butylphthalyl butylglycolate] | 20.9

Structure (SMILES) | IC50 [µM]
CCOc1ccc2nc(N)sc2c1 [2-Amino-6-ethoxybenzothiazole] | 43.3
CN1CCC(=C2c3ccccc3CCc3sccc32)CC1 [Pizotyline] | 10.3
C[Si](Cn1cncn1)(c1ccc(F)cc1)c1ccc(F)cc1 [Flusilazole] | 40.2
O=S(=O)(C(Cl)(Cl)Cl)C(Cl)(Cl)Cl [Bis(trichloromethyl)sulfone] | 18.8
COC(=O)C1=C(C)NC(COC(N)=O)=C(C(=O)OC(C)C)C1c1cccc(Cl)c1Cl (centres unmarked) [Lemildipine] | 23.9
COc1ccc(C(=CC(=O)N2CCOCC2)c2ccc(Cl)cc2)cc1OC [Dimethomorph] | 11.8
CC1(C)CCC(C)(C)c2cc(C(=O)Nc3ccc(C(=O)O)cc3)ccc21 [AM580] | 43.6
O=C(Oc1ccccc1)c1cccc(C(=O)Oc2ccccc2)c1 [Diphenyl isophthalate] | 25
CCc1cc(SCc2sc(-c3ccc(C(F)(F)F)cc3)nc2CN2CCN(c3ccc(OC)cc3)CC2)ccc1OCC(=O)O [PharmaGSID_47315] | 3.34
CCOC(=O)COc1ccc2c(c1)CC(NCC(O)c1cccc(Cl)c1)CC2 (centres unmarked) [SR58611] | 1.45
COc1ccccc1N1CCN(CC(O)COc2cccc3ccccc23)CC1 (centres unmarked) [Naftopidil] | 1.69
C[C@@H](NCCCc1cccc(C(F)(F)F)c1)c1cccc2ccccc12 [Cinacalcet hydrochloride] | 12
CCCCCC1Nc2cc(C(F)(F)F)c(S(N)(=O)=O)cc2S(=O)(=O)N1 (centres unmarked) [Penflutizide] | 23
Cc1ccsc1/C=C/C1=NCCCN1C [Morantel tartrate] | 19.7
CCCN(CCC)C(=O)Cc1c(-c2ccc(Cl)cc2)nc2ccc(Cl)cn12 [Alpidem] | 20.5
CC1=CC(=O)c2ccccc2C1=O [Menadione] | 7.28
CCCC(C(=O)OCCN(CC)CC)(c1ccccc1)c1ccccc1 [Proadifen hydrochloride] | 7.28
C[C@]12CC[C@H]3[C@@H](CCC4=CC(=O)CC[C@@H]43)[C@@H]1CC[C@@H]2OC(=O)CCc1ccco1 [Nandrolone furylpropionate] | 12
Cc1nnc2n1-c1sc(CCc3ccc(CC(C)C)cc3)cc1C(c1ccccc1Cl)=NC2C (centres unmarked) [Israpafant] | 19
CN(C)c1ccc(C(=C2C=CC(=[N+](C)C)C=C2)c2ccccc2)cc1 [Malachite green oxalate] | 3.51

Structure (SMILES) | IC50 [µM]
CC(CCc1ccccc1)NC(C)C(O)c1ccc(O)cc1 (centres unmarked) [Nylidrin] | 5.56
Nc1ccc(N=Nc2ccccc2)c(N)c1 [C.I. Basic Orange 2] | 19.8
C=C(Cl)CSC(=S)N(CC)CC [Sulfallate] | 51.5
Oc1ccc2[nH]cc(CCCCN3CC=C(c4ccccc4)CC3)c2c1 [Roxindole] | 3.38
CCCSSC(CCO)=C(C)N(C=O)Cc1cnc(C)nc1N [Prosultiamine] | 10.7
CC1=C(C(=O)OC(C)C)C(c2cccc([N+](=O)[O-])c2)C(C(=O)OC2CN(C(c3ccccc3)c3ccccc3)C2)=C(N)N1 (centres unmarked) [Azelnidipine] | 8.99
O=C(CCN1CCC(c2ccccc2)C1)c1ccc2c(c1)OCCO2 (centres unmarked) [Proroxan] | 17.6
CN1C[C@H](C(=O)N[C@]2(C)O[C@@]3(O)[C@@H]4CCCN4C(=O)[C@H](Cc4ccccc4)N3C2=O)C=C2c3cccc4[nH]cc(c34)C[C@H]21 [Ergotamine D-tartrate] | 11.9
O=C1C(Cl)=C(Cl)C(=O)c2ccccc21 [Dichlone] | 21.9
CCC(=O)c1ccc2c(c1)N(CCCN(C)C)c1ccccc1S2 [Propionylpromazine hydrochloride] | 9.16
COc1cc(C(C)=O)ccc1OCCCN1CCC(c2noc3cc(F)ccc23)CC1 [Iloperidone] | 1.4
CC(C)Oc1cc(-n2nc(C(C)(C)C)oc2=O)c(Cl)cc1Cl [Oxadiazon] | 44.7
O=C(CCCN1CCC2(CC1)C(=O)NCN2c1ccccc1)c1ccc(F)cc1 [Spiperone] | 1.76
CCCC[P+](C)(CCCC)CCCC [Tributylmethylphosphonium methyl sulfate] | 35.1
C(=C(c1ccccc1)c1ccccc1)c1ccccc1 [Triphenylethylene] | 18.1
CCCCCCCCCCCC[N+](C)(C)CCOc1ccccc1 [Domiphen bromide] | 1.34
COC(=O)C1=C(C)NC(C)=C(C(=O)OCCN2CCN(C(c3ccccc3)c3ccccc3)CC2)C1c1cccc([N+](=O)[O-])c1 (centres unmarked) [Manidipine dihydrochloride] | 7
CCN(CC)C(=O)c1cc(S(=O)(=O)Cc2ccccc2)c(N2CCC(c3ccccc3)CC2)cc1N(CC)CCN(C)C [HMR1171 trifluoroacetate (1:1)] | 2.72
CCN(CC)CCOC(=O)C(Cc1cccc2ccccc12)CC1CCCO1 (centres unmarked) [Nafronyl oxalate] | 8.99
